# Test results as given in patent publication EP1149076B1, “O-THIOCARBAMOYL-AMINOALKANOL COMPOUNDS, THEIR PHARMACEUTICALLY ACCEPTABLE SALTS AND PROCESS FOR PREPARING THE SAME” (SK Corporation, priority 1999, dated 2000).
# How the values were obtained:
# mice (CD-1 strain) [1] = assay: Forced Swimming Test; format: in vivo; conditions: duration of immobility, one hour prior to test, 15-minute test period
# Protocol: The therapeutic use of the compounds claimed in the present invention as antidepressants has been proven by the "Forced Swimming Test", a well known pharmacological screening methods for depression and the results are shown in the following Table II.
# The procedure described by Porsolt et al., (1997) was used. Test compound was administered p.o. and i.p. to mice (CD-1 strain), one hour prior to the animals being immersed in a 1500mL glass beaker (16.5cm deep, 13.0cm diameter) filled with water (20 ∼ 23°C) to about 5cm from the top. Mice were kept in the water for a period of 15 minutes and the duration of immobility observed within the 15-minute test period was recorded. A mouse was judged to be immobile if it floated motionlessly in the water making only those movements necessary to keep its head above the water.
# mice (CD-1 strain) [2] = assay: Maximal ElectroShock (MES) test; format: in vivo; conditions: for ED50: Mus musculus
Structure (SMILES),"Inhibition (reduction,%) (mice (CD-1 strain) [1]; i.p. (30mg/kg)) [%]","Inhibition (reduction,%) (mice (CD-1 strain) [1]; p.o. (30mg/kg)) [%]",also measured
NC(=S)OCC(N)Cc1ccc(Cl)cc1 (racemic),30.6,38.1,–
"NC(=S)OC[C@H](N)Cc1ccccc1 [[drawing] the 2nd table, row 2]",41.6,–,–
CNC(=S)OC[C@H](N)Cc1ccccc1,–,–,"ED50 (mice (CD-1 strain) [2]; ip, 1h): 20.9 mg/kg; MES (po, 30mg/kg) (mice (CD-1 strain) [2]; po, 30mg/kg, 0.5h, mice protected / mice tested): 3/3 (0.5h)"
CNC(=S)OCCC(N)c1ccccc1 (stereo not drawn),44.2,29.2,–
CNC(=S)OCC(N)Cc1ccccc1F (racemic),–,–,"ED50 (mice (CD-1 strain) [2]; ip, 1h): 24.7 mg/kg"
NC(=S)OC[C@@H](N)Cc1ccccc1,51.2,–,–
CNC(=S)OCC(CN)c1ccccc1 (stereo not drawn),30.5,25.6,–
"CN(C)C(=S)OC[C@H](N)Cc1ccc(Cl)c(Cl)c1 [[drawing] the 3rd table, row 7]",–,–,"MES (ip, 30mg/kg) (mice (CD-1 strain) [2]; ip, 30mg/kg, 4.0h, mice protected / mice tested): 1/3 (4.0h)"
"NC(=S)OC[C@H](N)Cc1ccccc1 [[drawing] the 3rd table, row 2]",–,–,"ED50 (mice (CD-1 strain) [2]; ip, 0.5h): 29 mg/kg; ED50 (mice (CD-1 strain) [2]; po, 0.5h): 189 mg/kg"
CNC(=S)OC[C@@H](N)Cc1ccccc1,–,–,"ED50 (mice (CD-1 strain) [2]; ip, 0.5h): 41.8 mg/kg; ED50 (mice (CD-1 strain) [2]; po, 0.5h): 152 mg/kg"
"CN(C)C(=S)OC[C@H](N)Cc1ccc(Cl)c(Cl)c1 [[drawing] the 2nd table, row 12]",54.9,50.8,–
